# Laboratory results from patent US20130236568A1, “PHOSPHAPLATINS HAVING ANTI-ANGIOGENIC, ANTI-METASTATIC, AND PRO-APOPTOTIC PROPERTIES AND USES THEREOF” (Ohio University, priority 2011, published 2013).
# Key:
# Assay type in all cases: cell-based, human
# [1] = system: p53; experiment: Expression of key genes with and without p53 inhibitor (Table 3): p53; conditions: positive = manifold increase, negative = decrease vs untreated cells
# Procedure: (§1) Quantitative real-time PCR experiments were performed to estimate the expression of a selection of targeted genes. HUVEC cells (Lonza Walkersville, Frederick, Md.) were cultured on 0.1% gelatin-coated petri dishes by following standard protocols recommended by the vendor in a humidified incubator by maintaining 5% CO2 at 37° C. Human epithelial ovarian cancer cells (A2780) and cisplatin-resistant cells (A2780/C30) were cultured in RPMI 1640 with or without cisplatin (7 μM) and pyrodach-4 (180 μM) for 0, 3, 12 and 24 hours. […] HUVECs were treated with or without cisplatin (7 μM) or pyrodach-4 (90 or 180 μM) for various durations ranging from 1 hr. to 6 hrs.
# (§2) Both treated and untreated cancer cells were maintained in RPMI 1640 medium with 10% fetal bovine serum, 2 μmol L-glutamine, 100 units/mL penicillin-streptomycin and 0.25 units/mL insulin solution, at 37° C. with 5% CO2. RNA was isolated from both the treated and untreated cells. […] The quantity and purity of RNA were determined by UV spectroscopy (NanoDrop 2000 Thermo Scientific, Wilmington, Del.). A minimum absorbance ratio index (ratio of the absorbance measured at 260 nm over that at 280 nm) of 1.9 was used as an acceptable purity. […] The target gene was labeled with a blue dye (FAM, absorbance: 494 nm, emission: 518 nm) while the reference gene was tagged with a green dye (VIC, absorbance: 538 nm, emission: 554 nm). […]
# [2] = system: VEGFR-2; experiment: Expression of key genes with and without p53 inhibitor (Table 3): VEGFR-2; conditions: positive = manifold increase, negative = decrease vs untreated cells
# Procedure: as §1, §2
# [3] = system: PTEN; experiment: Quantitative real-time PCR, PTEN expression in HUVEC; conditions: HUVEC treated with pyrodach-4
# Procedure: (§3) Evaluations of selected gene expressions in Human Umbilical Vein Endothelial Cells (HUVEC) and Human Ovarian Cancer Cells by quantitative reverse transcriptase polymerase chain reaction (PCR)
# (§4) Quantitative real-time PCR experiments were performed to estimate the expression of a selection of targeted genes. HUVEC cells (Lonza Walkersville, Frederick, Md.) were cultured on 0.1% gelatin-coated petri dishes by following standard protocols recommended by the vendor in a humidified incubator by maintaining 5% CO2 at 37° C. […]
# as §2, with “CO2.” for “CO2. RNA was isolated from both the treated and untreated cells.”
# (§5) The threshold cycle number (Ct), the point at which the fluorescence of the qPCR reaction just exceeds the threshold fluorescence of the detection system, was determined. […]
# [4] = system: caspase-9; experiment: Quantitative real-time PCR, caspase-9 expression in HUVEC; conditions: HUVEC treated with pyrodach-4
# Procedure: as §3, §4
# as §2, with “CO2.” for “CO2. RNA was isolated from both the treated and untreated cells.”
# as §5
# [5] = system: A2780 cells; experiment: Cell death detection assay with ELISA, A2780 cells; conditions: 24 hr
# Procedure: In these experiments, ovarian cancer cells were treated with pyrodach-4 in the presence and absence of inhibitors PFT-α (an inhibitor p53) and LY29400 (an inhibitor of PI3K).
# Cells were treated with compounds for 24 hr. The different treatment groups from left to right are: control, 7 μM cisplatin, Con+PFT-α, 180 μM D4, 180 μM D4+PFT-α, 180 μM D4+LY294002. Statistical analysis was conducted using the Tukey test. N=3 and P<0.05. In the figure, “*” indicates values significant from untreated control.
# A2780 and A2780/C30 cells were grown in monolayers, trypsinized and suspended in supplemented RPMI 1640 media as described in Example 5. All the treatments on the Fc/A2780 and Fc/A2780/C30 cell samples were carried out in triplicate. The ELISA was performed according to the manufacturer's instructions. Briefly, 50,000 cells were plated for each treatment and the cells were allowed to adhere for 4-6 hours. Cells were then either incubated with media alone (untreated sample) or with pyrodach-4 or cisplatin in the concentrations indicated above. […] The absorbances were measured at 405 and 490 nm for each treatment type using SPECTRA Max M2 multichannel fluorescence plate reader (Molecular Devices, Sunnyvale, Calif.). The absorbances of the treated samples were normalized to the substrate solution. […]
substance,measurement,setting,value
"trans-(±)-1,2-cyclohexanediamine-trans-dihydroxo(pyrophosphato) platinum(IV) [Pyrodach-4]",Expression of p53,[1]; Pyrodach-4 + PFT-α,2.1
same,Expression of p53,[1]; Pyrodach-4 treatment only,1.8
same,Expression of VEGFR-2,[2]; Pyrodach-4 + PFT-α,−1.6
same,Expression of VEGFR-2,[2]; Pyrodach-4 treatment only,−1.9
same,Over-expression of PTEN,[3],4-8 fold
same,Over-expression of caspase-9,[4],2-3 fold
same,"Overall apoptotic cell death in the presence of inhibitors, compared to cisplatin",[5]; 180 μM D4 with PFT-α 15 μM or LY294002 30 μM vs 7 μM cisplatin,remained extremely high compared to cisplatin
same,Effect of p53 and PI3K inhibitors on apoptotic cell death (ELISA absorbance),[5]; 180 μM D4 with PFT-α 15 μM or LY294002 30 μM,some reduction in cell death
